The values below come from US20110124715A1, “Antiviral Oligonucleotides Having a Conserved G4 Core Sequence” (priority 1992, published 2011).

Data set [1] relates to human cytomegalovirus (HCMV). The data set is classed as cell-based.
The subject of another data set is HIV-1IIIB. The data set is described as follows: Acute HIV infection assay (XTT, CEM cells). Particulars: Table 3. A general note: Tetrazolium dyes change colour on reduction, which living cells bring about.
Data set [2] relates to human T-lymphoblastoid CEM cell line.
Data set [3] concerns HSV-1 (KOS). In words: HSV-1 infection ELISA assay. The data set is classed as cell-based, herpes simplex virus. Particulars: Table 1; 50% inhibition of HSV replication relative to control infected cells. In general terms: In an ELISA, binding on a coated surface is turned into a signal by an enzyme label.
Another data set has as its target gp120 (Human immunodeficiency virus type 1 group M subtype B, UniProt P03375). Particulars: read-out: dissociation constant (Kd); immobilized gp120; FIG. 16.
In data set [4] the test system is HSV-1 (KOS). The data set is described as follows: HSV-1 virus yield assay. The data set is classed as cell-based, herpes simplex virus. Also noted: dose or concentration left out as unconfirmed. The settings on record: compared with Acyclovir.
Another data set relates to HIV. The data set is classed as cell-based. Particulars: data not shown.
In another data set the target is T1, human CD44 (Homo sapiens, UniProt P16070).
T1 construct: endogenous in cells; host or cells: HeLa cells harboring an HIV-1 env gene
The data set is described as follows: Immunofluorescent flow cytometry, anti-CD44 mAb. The data set is classed as cell-based.

The target in the next data set is V3 loop region of gp120 (Human immunodeficiency virus type 1 group M subtype B, UniProt P03375).
Data set [5] relates to HIV-1.
For data set [6], the system named is chronically infected (H9 IIIB) cell models. In words: Chronically infected cell models. The data set is classed as cell-based, human immunodeficiency virus. The settings on record: data not shown.
Data set [7] concerns the target T2, CD4 (Homo sapiens, UniProt P01730). In words: Immunofluorescent flow cytometry, anti-CD4 mAb on CEM-T4 cells. The data set is classed as cell-based.
Data set [8] concerns HIV-1. This is another data set of the same source.
A short description of data set [9]: Fraction tetramer by size exclusion chromatography. The data set is classed as physicochemical. The settings on record: Table 16; asterisk = more than one aggregate species. A general note: SEC sorts molecules by how far they enter the pores of the column.
For data set [10], the target named is T2, CD4. The data set is classed as binding.
A further data set has as its target CD4/gp120 interaction (Human immunodeficiency virus type 1 group M subtype B, UniProt P03375). The settings on record: concentrations 10,000-fold above its IC50; Callahan et al.; cited from earlier work.

pEC50, pIC50, pKd: −log10 of the molar value. Values joined by “and” are separate entries in the source; they are usually repeats but may differ in a detail not shown here. Equal entries are not always repeated. Where two headings read alike, the source gives them in different places. Where only a bound is given, the exact number is not on record here.

T1 sequence (P16070 21-361 isoform P16070-12 limits assumed): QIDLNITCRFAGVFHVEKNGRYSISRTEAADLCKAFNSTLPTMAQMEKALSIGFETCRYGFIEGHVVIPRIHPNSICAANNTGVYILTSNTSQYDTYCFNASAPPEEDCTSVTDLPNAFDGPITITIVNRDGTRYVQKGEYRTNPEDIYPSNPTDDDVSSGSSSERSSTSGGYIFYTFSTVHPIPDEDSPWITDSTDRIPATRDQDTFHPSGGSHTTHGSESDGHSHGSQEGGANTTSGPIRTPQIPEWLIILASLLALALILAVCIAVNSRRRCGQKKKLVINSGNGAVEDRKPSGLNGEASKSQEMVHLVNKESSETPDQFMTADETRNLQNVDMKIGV

For the substance “5367 (TTGGGGTTGGGGTTGGGGTTGGGGG; phosphodiester, further chemistry not given here) [compound 5367]”, the pIC50 in [1] is less than 5.70; in the data set on HIV-1IIIB (inhibition of HIV), 7.05 and 6.89. Moreover, in the data set with HIV-1IIIB, the “TI (TC50/IC50)” value came to 400. Also, in data set [2], the TC50 amounted to 52000 nM. Further, the negative-log EC50 (pEC50) with HSV-1 (KOS) [3] was less than 5.40.

In the case of T2A4T2-biotin, the pKd on gp120 is approximately 3.59.

As for “TT GGGG TT GGGG TT GGGG TT GGGG (TTGGGGTTGGGGTTGGGGTTGGGG; chemistry not fully specified) [ISIS 5651]”, in the data set with HSV-1 (KOS) [4], the “antiviral activity, virus yield” value is listed as “greater antiviral activity than did Acyclovir”.

As to TT GGGG TT [ISIS 5320], the “production of intracellular PCR-amplifiable DNA” value in the data set on HIV is given as “inhibited production of intracellular PCR-amplifiable DNA”. For the same substance, the “effect on binding of antibodies to human CD44” value at human CD44 is “Neither oligonucleotide significantly decreased binding”. Also, the “effect on binding of antisera to gp120” value at V3 loop region of gp120 was “interferes with binding of antisera directed against the V3 loop region of gp120”. The pIC50 in the data set on HIV-1 [5] (read-out: concentration reducing virus production to 50% of control, tetramer form, infection after 48 hours, data not shown) is approximately 6.40; in the data set with HIV-1 [8] (Table 16, acute HIV assay, listed as TsTsGsGsGsGsTsT) it was 6.52. Further, the “effect on chronically infected cells” value in data set [6] is given as “had no effect”. In addition, at CD4 [7], the “effect on binding of antibodies to CD4” value is given as “Neither oligonucleotide significantly decreased binding”. In the data set with HIV-1 [8] (Table 15, μM of oligonucleotide strand to inhibit 50% of virus-induced cell killing, error ±0.1 μM), this substance returned an IC50 of 0.3 µM. Besides, the “antiviral activity after heat denaturation of the tetrameric complex” value in the data set on HIV-1 [8] (data not shown) is listed as “loss of activity”.

On to “TsTsGsGsGsGsTsT [TsTsGsGsGsGsTsT heat denatured]”, for which, in the data set on HIV-1 [5] (5 μM oligonucleotide), the inhibition of binding result is “showed inhibition of binding”. Moreover, the IC50 entry with HIV-1 [8] (Table 16, acute HIV assay) was “inactive”. Moreover, in data set [9], the “% tetramer” value worked out at 0%.

With TsTsGsGsGsGsTsTsB, the pKd at CD4 [10] is approximately 4.60. This substance also gave a pIC50 in the data set on HIV-1 [8] (Table 16, acute HIV assay) of 6.40. In addition, in data set [9], the “% tetramer” value is reported as 85%.

In the case of dextran sulfate, on CD4/gp120 interaction, the “effect on gp120/CD4 interaction” value is reported as “does not prevent the gp120/CD4 interaction”.

One may read the pEC50 as the negative decadic logarithm of the EC50, by convention in mol/L. Broadly, the pKd is the Kd on a negative log10 scale, so that one unit is a factor of ten. What is called IC50 is the concentration needed to halve the response being measured.
